The record followed here is US8129412B2, “Hydantoin derivatives useful as metalloproteinase inhibitors” (AstraZeneca AB, priority 2004, dated 2012).

Structures are written as SMILES.

This assay deals with T1, Recombinant human proMMP13 (collagenase 3) (Homo sapiens, UniProt P45452).
T1 construct: made in house
As to the kind of experiment: Collagenase 3 (MMP13) enzyme inhibition assay with fluorogenic peptide substrate. It is filed as biochemical. The conditions noted are these: APMA-activated MMP13, 4-5 hours at 35° C., pH 7.5, fluorescence λex 328 nm / λem 393 nm. The method, then:
Collagenase 3 (MMP13) inhibitory activity may be assessed, for example, using the procedure set out below:—
Activity is determined by measuring the fluorescence at λex 328 nm and λem 393 nm.
The term IC50 denotes the concentration at which inhibition is half-maximal. As to `CCC1(CS(=O)(=O)N2CCC(Oc3ccc(OC(F)(F)C(F)F)cc3)CC2)NC(=O)NC1=O` (stereo not drawn) [Example 4, 5S-ethyl-5-[({4-[4-(1,1,2,2-tetrafluoroethoxy)phenoxy]piperidin-yl}sulfonyl)methyl]imidazolidine-2,4-dione], the half-maximal inhibitory concentration (IC50) worked out at 4.9 nM.

As for `CC[C@]1(CS(=O)(=O)N2CCC(Oc3ccc(OC(F)(F)C(F)(F)F)cc3)CC2)NC(=O)NC1=O` [Example 6, (5S)-5-ethyl-5-[({4-[4-(pentafluoroethoxy)phenoxy]piperidin-1-yl}sulfonyl)methyl]imidazolidine-2,4-dione], the IC50 came out at 13 nM.

As to `CC[C@]1(CS(=O)(=O)N2CCC(Oc3ccc(OCC(F)(F)C(F)(F)F)cc3)CC2)NC(=O)NC1=O` [Example 12, (5S)-5-ethyl-5-[({4-[4-(2,2,3,3,3-pentafluoropropoxy)phenoxy]-piperidin-1-yl}sulphonyl)methyl]imidazolidine-2,4-dione], the IC50 came out at 1.9 nM.

Take `CCC1(CS(=O)(=O)N2CCC(Oc3ccc(OCCC(F)(F)F)cc3)CC2)NC(=O)NC1=O` (stereo not drawn) [Example 8]: the IC50 stood at 5.5 nM.

Consider `CC[C@]1(CS(=O)(=O)N2CCC(Oc3ccc(OCC(F)(F)C(F)F)cc3)CC2)NC(=O)NC1=O` [Example 10, (5S)-5-ethyl-5-[({4-[4-(2,2,3,3-tetrafluoropropoxy)phenoxy]-piperidin-1-yl}sulphonyl)methyl]imidazolidine-2,4-dione], for which the IC50 turned out to be 0.7 nM.

Take `CC[C@]1(CS(=O)(=O)N2CCC(Oc3ccc(OCC(F)(F)F)cc3)CC2)NC(=O)NC1=O` [Example 2, (5S)-5-ethyl-5-[({4-[4-(2,2,2-trifluoroethoxy)phenoxy]piperidin-1-yl}sulfonyl)methyl]imidazolidine-2,4-dione]: the concentration for half-maximal inhibition (IC50) was found to be 8.4 nM.
